Experimental findings from US20100137221A1, “PEPTIDES THAT INTERACT WITH TOPOISOMERASE I AND METHODS THEREOF” (UNIVERSITY UTAH RESEARCH FOUNDATION, priority 2007, published 2010) are described below.

Entries after “also recorded” stand apart in the source; their conditions may differ. Read-outs that look alike come from different tables or passages of the source. No end group written: not given here.

The target of assay [1] is T1, top 1-DNA binding (Homo sapiens, UniProt P11387).
T1 construct: made in house; host or cells: Sf9 insect cells (baculovirus) or human placenta
T1 sequence (P11387 1-765): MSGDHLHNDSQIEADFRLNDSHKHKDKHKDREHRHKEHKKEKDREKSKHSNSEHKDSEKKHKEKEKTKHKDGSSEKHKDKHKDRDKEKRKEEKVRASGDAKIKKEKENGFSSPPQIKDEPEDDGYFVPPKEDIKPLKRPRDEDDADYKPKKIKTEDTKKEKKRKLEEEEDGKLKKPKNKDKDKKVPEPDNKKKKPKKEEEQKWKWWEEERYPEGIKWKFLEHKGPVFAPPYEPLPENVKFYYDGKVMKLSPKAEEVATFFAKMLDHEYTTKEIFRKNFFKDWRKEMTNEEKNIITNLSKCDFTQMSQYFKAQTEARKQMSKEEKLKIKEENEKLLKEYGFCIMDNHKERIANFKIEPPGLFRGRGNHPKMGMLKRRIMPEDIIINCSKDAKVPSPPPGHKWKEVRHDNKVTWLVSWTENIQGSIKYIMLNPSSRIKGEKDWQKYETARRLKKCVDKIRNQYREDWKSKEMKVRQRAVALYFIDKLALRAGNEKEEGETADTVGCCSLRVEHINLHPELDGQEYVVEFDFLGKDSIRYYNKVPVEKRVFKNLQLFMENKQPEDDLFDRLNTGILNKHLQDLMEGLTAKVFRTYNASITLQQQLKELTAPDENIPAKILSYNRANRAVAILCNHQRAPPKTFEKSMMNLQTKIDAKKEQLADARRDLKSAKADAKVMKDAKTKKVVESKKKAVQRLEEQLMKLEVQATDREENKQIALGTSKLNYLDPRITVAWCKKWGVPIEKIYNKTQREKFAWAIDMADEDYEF
The assay can be described thus: Biosensor analysis of the effect of peptide on top 1-DNA binding. The note with it: 50 nM CPP4; top 1 5, 10 and 20 nM; biotinylated linear DNA. As for the experimental part:
Biotinylated linear DNA was attached to the flow cell via straptavidin. Top 1 (5, 10 and 20 nM) was applied.

Assay [2] concerns HCT 116 tumor. The assay can be described thus: In vivo HCT 116 tumor xenograft in nude mice. Further details: species or system nude (BalbC nu/nu) mice. The note with it: all doses tested, i.p. As for the experimental part: In vivo mouse studies: HCT 116 cells (4×10^6) were injected into the flanks of nude (BalbC nu/nu) mice for both experiments. The animals were randomized when the tumors were staged at 50 mm^3. In the first experiment, control animals were administered 0.1 ml of vehicle (α-MEM containing 0.05% methylcarboxycellulose and 2% DMSO) i.p., in the absence of peptide (PBS, control #1) or presence of T1BP2-T (control #2, 150 μg in 0.1 ml PBS) or T1BP3-T (control #3, 150 μg in 0.1 ml PBS) injected s.c. at site of tumor. […] Animals treated with 9AC were divided into 4 groups, each containing 5 mice. T1BP-T and PBS subcutaneous injections were administered as described above at the site of the tumor, 30 minutes after the i.p. injection of 9AC in a 50 μl volume. 9AC was dissolved in vehicle. Groups consisted of animals treated with a total of 4 mg/kg 9AC (low dose) in the absence or presence of T1BP2-T or a total of 8 mg/kg 9AC (high dose). Animals were treated with 1 or 2 mg/kg doses, twice a week over 2 weeks. In the second experiment, 18 mice were evaluated in three groups of six animals. Control animals were injected i.p. with 0.1 ml of vehicle (α-MEM containing 0.05% methylcarboxycellulose and 2% DMSO). […]

The target of assay [3] is T2, 100 kDa top1 (Homo sapiens, UniProt P11387).
T2 construct: made in house; host or cells: Sf9 insect cells (baculovirus) or human placenta
T2 sequence (P11387 1-765): T1 sequence (P11387 1-765)
The assay can be described thus: top1-mediated DNA relaxation assay (supercoiled pBR322). The format is biochemical. The note with it: 1 μM peptide. How it is done: Top1 relaxation/cleavage activity assays: Peptides were assayed for their ability to interfere with or enhance relaxation of supercoiled DNA mediated by 100 kDa top1. The top1 and pBR322 were combined in a top1-reaction buffer (150 mM KCl, 12 mM MgCl2, 2 mM EDTA, 50 mM Tris HCl pH 7.5) at 37° C. for 30 minutes with 1 μM peptide. The 20 μl reactions were stopped with 1.0 μl of 1% SDS. Digestion of protein was performed by addition of 1.0 μg proteinase K for 30 minutes at 37° C., loaded with 5 μl of a standard 5×bromphenol blue/glycerol loading buffer and run in an 0.8% agarose gel in TAE (0.04 M Tris-acetate and 1.0 mM EDTA). DNA cleavage assays were performed in 20 μl volumes of reaction buffer (50 mM Tris-HCl (pH 7.5), 100 mM KCl, 10 mM MgCl2 0.5 mM EDTA, 0.2 mg/ml BSA), 500 ng of radiaolabeled (^3H thymidine) supercoiled rf (replicative form) M13 mp 19 DNA and 112 ng of top1. The reactions were incubated for 30 minutes at 30° C. and then treated with 1 μl of 1 mg/ml proteinase K in 0.05% SDS for an additional 30 minutes at 37° C. to transform the 9AC-top1-DNA complexes into nicked DNA. This was followed by electrophoresis in an 0.8% agarose-TAE gel containing ethidium bromide. […] Percent cleavage was determined by liquid scintillation counting of excised bands using the method described by Marshall et al. (Marshall 2003).

The target in assay [4] is T3, top1 (Homo sapiens, UniProt P11387).
T3 sequence (P11387 1-765): T1 sequence (P11387 1-765)
The note with it: surface plasmon resonance. Background: Surface plasmon resonance follows binding to a sensor surface in real time, without labels.
Method: Binding analysis: The binding analysis of the peptides was performed on a BIAcore 2000 instrument. A four channel CM5 sensor chip was derivatized with three top1 binding peptides (T1BPs 1, 2 and 4) and a control surface left blank. Catalytically active top1 was used as the mobile or analyte phase and diluted in 150 mM NaCl, 30 mM HEPES, 0.05% P20 and injected at various concentrations (8.0, 4.0, 2.0, 1.0 and 0.4 nM) through the instrument's microfluidics sample handling system at a flow rate of 30 μl/minute. With each injection of a particular concentration of top1, association and dissociation data for three peptides were generated. Binding constants were determined using the BIAevaluation 2.1 software.

Assay [5] deals with T3, top1. Nature of the assay: Biosensor binding specificity, top1 versus topoisomerase II and tubulin over T1BP2 surface. Also on record: made in house; host or cells: Sf9 insect cells (baculovirus) or human placenta. The note with it: 8.0 nM of each protein injected over T1BP2 channel. How it is done: These top1 experiments were evaluated with BIAevaluation Software 3.1 using Langmuir Kinetics to model the interaction. The accuracy of the fit to the model is illustrated by dashed lines representing actual data and narrow lines representing the fitted curves.

Assay [6] deals with T3, top1. The assay can be described thus: DNA cleavage complex assay with 9AC. The format is biochemical. Also on record: made in house; host or cells: Sf9 insect cells (baculovirus) or human placenta. How it is done:
Top1 relaxation/cleavage activity assays: Peptides were assayed for their ability to interfere with or enhance relaxation of supercoiled DNA mediated by 100 kDa top1. The top1 and pBR322 were combined in a top1-reaction buffer (150 mM KCl, 12 mM MgCl2, 2 mM EDTA, 50 mM Tris HCl pH 7.5) at 37° C. for 30 minutes with 1 μM peptide. The 20 μl reactions were stopped with 1.0 μl of 1% SDS. Digestion of protein was performed by addition of 1.0 μg proteinase K for 30 minutes at 37° C., loaded with 5 μl of a standard 5×bromphenol blue/glycerol loading buffer and run in an 0.8% agarose gel in TAE (0.04 M Tris-acetate and 1.0 mM EDTA). […] The reactions were incubated for 30 minutes at 30° C. and then treated with 1 μl of 1 mg/ml proteinase K in 0.05% SDS for an additional 30 minutes at 37° C. to transform the 9AC-top1-DNA complexes into nicked DNA. This was followed by electrophoresis in an 0.8% agarose-TAE gel containing ethidium bromide. A control set of experiments and log serial dilutions of peptide were examined for each peptide. Percent cleavage was determined by liquid scintillation counting of excised bands using the method described by Marshall et al. (Marshall 2003).

On to DRVPLVHVIFNSFGY [CPP4], for which the “top 1 dissociation from DNA” value in assay [1] is “dissociation is slowed”.
As to `CC[C@@]1(O)C(=O)OCc2c1cc1n(c2=O)Cc2cc3c(N)cccc3nc2-1` [9AC, 9-amino camptothecin], the “anti-tumor effect of 9AC alone” value in assay [2] was “significant anti-tumor effects”.
For “SAYAATVRGPLSSAS [T1BP2, SAYAATVRGPLSSAS]”, the “effect on top1-mediated DNA relaxation” value in assay [3] was “slight ability to inhibit top1-mediated relaxation; also recorded: Inhibition of top1 relaxation (slight increase in supercoiled DNA remaining)”. In addition, the “affinity for top1 (in words)” value in assay [4] is recorded as “high nanomolar affinity”; in assay [4] (listed as T1PB2), “mid-nanomolar affinity”. In assay [5], the “binding specificity for top1 verses topoisomerase II and tubulin” value is given as “specificity for top1”. In addition, the “effect on cleavage (in words)” value in assay [6] (0.45 μM 9AC, 20 ng top1) is on record as “increase in cleavage at all but one concentration”. Besides, the “increase in cleavage complex formation” value in assay [6] (0.45 μM and 0.9 μM 9AC, through the range of peptide concentrations tested) was “approximately 50%”.
